# In patent US20150044346A1, “USE OF OXAZOLINES AS AROMA/FLAVOUR PRECURSORS” (NESTEC S.A., priority 2012, published 2015):
# Where “and” joins values, the source holds several entries; their conditions need not be identical. Equal entries are not always repeated.
# Experiments:
# [1] = Release of Strecker aldehyde from 3-oxazoline precursor stirred in water at 37° C. (stable isotope dilution, HS-GC-MS / GC-MS); type: physicochemical; conditions: for isomer I (formed) (mol %) / isomer II (unreacted) (mol %): starting from isomer II; for isomer I (unreacted) (mol %) / isomer II (formed) (mol %): starting from isomer I
# [2] = Impact of pH value on release of Strecker aldehyde from 3-oxazoline precursor in buffer solution at 37° C.; type: physicochemical
# Method: (§1) 2-(2-Methylpropyl)-5-methyl-3-oxazoline (dissolved in pentane/diethyl ether; 2 mL) was added to ethanol (0.5 mL). The pentane/diethyl ether was carefully evaporated, and finally made up to 5 mL with ethanol. […] A control experiment was performed with 2-(2-methylpropyl)-5-methyl-3-oxazoline and the respective standard without adding the respective buffer solution. For headspace measurements, the samples were directly subjected to HS-GC-MS. For liquid measurements, the samples were cooled in an ice bath and extracted with diethyl ether (3×15 mL; liquid-liquid extraction). The organic phases were combined, dried over anhydrous sodium sulphate, and the solvent was distilled off (20° C., 500 mbar) to about 4 mL. An aliquot (2 μL) was used for the stable isotope dilution assays ((GC-) GC-MS).
# as §1, with “2-Methylphenyl-5-methyl-3-oxazoline” for “2-(2-Methylpropyl)-5-methyl-3-oxazoline”, “2-methylphenyl-5-methyl-3-oxazoline” for “2-(2-methylpropyl)-5-methyl-3-oxazoline”
# [3] = 5 min, stirred in water at 37° C.
# [4] = 15 min, stirred in water at 37° C.
# [5] = 30 min, stirred in water at 37° C.
# [6] = Control experiment without addition of water
# [7] = Control without addition of water
# [8] = Control experiment without addition of water, in relation to amount of precursor used
smiles,measurement,setting,value
"Cc1ccccc1C1N=CC(C)O1 (single isomer, unassigned; isomer ii) [2-methylphenyl-5-methyl-3-oxazoline isomer II, 2-methylphenyl-5-methyl-3-oxazoline]",phenylacetaldehyde (mol %) generated from precursor,[1]; [3],17.2 mol %
same,phenylacetaldehyde (mol %) generated from precursor,"[1]; 5 min, stirred in water at 37° C., listed as 2-methylphenyl-5-methyl-2-oxazoline isomer II",17.2 mol %
same,isomer I (formed) (mol %),"[1]; 5 min, water 37° C.",9.0 mol %
same,isomer II (unreacted) (mol %),"[1]; 5 min, water 37° C.",28.6 mol %
same,phenylacetaldehyde (mol %) generated from precursor,[1]; [4],32.2 mol %
same,phenylacetaldehyde (mol %) generated from precursor,"[1]; 15 min, stirred in water at 37° C., listed as 2-methylphenyl-5-methyl-2-oxazoline isomer II",32.2 mol %
same,isomer I (formed) (mol %),"[1]; 15 min, water 37° C.",5.4 mol %
same,isomer II (unreacted) (mol %),"[1]; 15 min, water 37° C.",26.0 mol %
same,phenylacetaldehyde (mol %) generated from precursor,[1]; [5],46.5 mol %
same,phenylacetaldehyde (mol %) generated from precursor,"[1]; 30 min, stirred in water at 37° C., listed as 2-methylphenyl-5-methyl-2-oxazoline isomer II",46.5 mol %
same,isomer I (formed) (mol %),"[1]; 30 min, water 37° C.",2.7 mol %
same,isomer II (unreacted) (mol %),"[1]; 30 min, water 37° C.",20.2 mol %
same,phenylacetaldehyde (mol %) generated from precursor,[1]; [6],0.3 mol %
same,phenylacetaldehyde (mol %) generated from precursor,"[1]; Control experiment without addition of water, listed as 2-methylphenyl-5-methyl-2-oxazoline isomer II",0.3 mol %
same,isomer I (formed) (mol %),[1]; [7],1.8 mol %
same,isomer II (unreacted) (mol %),[1]; [7],98.2 mol %
"CC1C=NC(C(C)C)O1 (single isomer, unassigned) [2-(1-methylethyl)-5-methyl-3-oxazoline]",methylpropanal (mol %) generated from precursor,[1]; [3],46.0 mol %
same,methylpropanal (mol %) generated from precursor,[1]; [4],53.5 mol %
same,methylpropanal (mol %) generated from precursor,[1]; [5],56.1 mol %
same,methylpropanal (mol %) generated from precursor,[1]; [6],0.1 mol %
"CC(C)CC1N=CC(C)O1 (single isomer, unassigned) [2-(2-methylpropyl)-5-methyl-3-oxazoline isomer II, 2-(2-methylpropyl)-5-methyl-3-oxazoline]",3-methylbutanal (mol %) generated from precursor,[1]; [3],72.5 mol %
same,isomer I (formed) (mol %),"[1]; 5 min, water 37° C.",3.0 mol %
same,isomer II (unreacted) (mol %),"[1]; 5 min, water 37° C.",25.7 mol %
same,3-methylbutanal (mol %) generated from precursor,[1]; [4],81.4 mol %
same,isomer I (formed) (mol %),"[1]; 15 min, water 37° C.",3.7 mol %
same,isomer II (unreacted) (mol %),"[1]; 15 min, water 37° C.",16.7 mol %
same,3-methylbutanal (mol %) generated from precursor,[1]; [5],92.2 mol %
same,isomer I (formed) (mol %),"[1]; 30 min, water 37° C.",2.2 mol %
same,isomer II (unreacted) (mol %),"[1]; 30 min, water 37° C.",7.2 mol %
same,3-methylbutanal (mol %) generated from precursor,[1]; [8],0.4 mol %
same,isomer I (formed) (mol %),[1]; [7],1.7 mol %
same,isomer II (unreacted) (mol %),[1]; [7],98.3 mol %
"Cc1ccccc1C1N=CC(C)O1 (single isomer, unassigned; isomer i) [2-methylphenyl-5-methyl-3-oxazoline isomer I, 2-methylphenyl-5-methyl-3-oxazoline]",phenylacetaldehyde (mol %) generated from precursor,[1]; [3],16.6 mol %
same,isomer I (unreacted) (mol %),"[1]; 5 min, water 37° C.",31.8 mol %
same,isomer II (formed) (mol %),"[1]; 5 min, water 37° C.",7.1 mol %
same,phenylacetaldehyde (mol %) generated from precursor,[1]; [4],23.1 mol %
same,isomer I (unreacted) (mol %),"[1]; 15 min, water 37° C.",31.1 mol %
same,isomer II (formed) (mol %),"[1]; 15 min, water 37° C.",6.3 mol %
same,phenylacetaldehyde (mol %) generated from precursor,[1]; [5],42.5 mol %
same,isomer I (unreacted) (mol %),"[1]; 30 min, water 37° C.",22.3 mol %
same,isomer II (formed) (mol %),"[1]; 30 min, water 37° C.",5.8 mol %
same,phenylacetaldehyde (mol %) generated from precursor,[1]; [6],0.2 mol %
same,isomer I (unreacted) (mol %),[1]; [7],98.0 mol %
same,isomer II (formed) (mol %),[1]; [7],2.0 mol %
same,corresponding isomer II formed from purified isomer I,"[1]; after 5 min, water 37° C.",7%
same,phenylacetaldehyde liberated,"[1]; after 5 min, water 37° C.",17%
same,phenylacetaldehyde liberated,"[1]; after 15 min, water 37° C.",> 20%
same,phenylacetaldehyde liberated,"[1]; after 30 min, water 37° C.",> 40% and 43%
"CCC(C)C1N=CC(C)O1 (single isomer, unassigned) [2-(1-methylpropyl)-5-methyl-3-oxazoline]",2-methylbutanal (mol %) generated from precursor,[1]; [3],14.6 mol %
same,2-methylbutanal (mol %) generated from precursor,[1]; [4],33.3 mol %
same,2-methylbutanal (mol %) generated from precursor,[1]; [5],55.6 mol %
same,2-methylbutanal (mol %) generated from precursor,[1]; [6],1.1 mol %
"CC(C)CC1N=CC(C)O1 (single isomer, unassigned) [2-(2-methylpropyl)-5-methyl-3-oxazoline isomer I, 2-(2-methylpropyl)-5-methyl-3-oxazoline]",3-methylbutanal (mol %) generated from precursor,[1]; [3],72.7 mol %
same,isomer I (unreacted) (mol %),"[1]; 5 min, water 37° C.",16.2 mol %
same,isomer II (formed) (mol %),"[1]; 5 min, water 37° C.",5.1 mol %
same,3-methylbutanal released / precursor converted to Strecker aldehyde,[1]; 5 min after addition of water at 37° C.,73%
same,3-methylbutanal (mol %) generated from precursor,[1]; [4],82.4 mol %
same,isomer I (unreacted) (mol %),"[1]; 15 min, water 37° C.",8.4 mol %
same,isomer II (formed) (mol %),"[1]; 15 min, water 37° C.",10.2 mol %
same,3-methylbutanal (mol %) generated from precursor,[1]; [5],91.1 mol %
same,isomer I (unreacted) (mol %),"[1]; 30 min, water 37° C.",2.9 mol %
same,isomer II (formed) (mol %),"[1]; 30 min, water 37° C.",4.3 mol %
same,3-methylbutanal (mol %) generated from precursor,[1]; [8],0.3 mol %
same,isomer I (unreacted) (mol %),[1]; [7],98.1 mol %
same,isomer II (formed) (mol %),[1]; [7],1.9 mol %
same,corresponding isomer II formed from purified isomer I,"[1]; after 5 min, water 37° C.",5%
same,3-methylbutanal released,"[1]; after 15 min, water 37° C.",> 80%
same,3-methylbutanal released,"[1]; after 30 min, water 37° C.",> 90% and 91%
Cc1ccccc1C1N=CC(C)O1 (centres unmarked) [2-methylphenyl-5-methyl-3-oxazoline],phenylacetaldehyde (mol %) generated from precursor,"[2]; pH 5, Control without addition of buffer solution",0.4 mol %
same,phenylacetaldehyde (mol %) generated from precursor,"[2]; pH 5 buffer, 5 min, 37° C.",41.2 mol %
same,phenylacetaldehyde (mol %) generated from precursor,"[2]; pH 5 buffer, 15 min, 37° C.",72.1 mol %
same,phenylacetaldehyde (mol %) generated from precursor,"[2]; pH 5 buffer, 30 min, 37° C.",87.7 mol %
same,phenylacetaldehyde (mol %) generated from precursor,"[2]; pH 7, Control without addition of buffer solution",0.3 mol %
same,phenylacetaldehyde (mol %) generated from precursor,"[2]; pH 7 buffer, 5 min, 37° C.",7.7 mol %
same,phenylacetaldehyde (mol %) generated from precursor,"[2]; pH 7 buffer, 15 min, 37° C.",18.0 mol %
same,phenylacetaldehyde (mol %) generated from precursor,"[2]; pH 7 buffer, 30 min, 37° C.",30.2 mol %
same,phenylacetaldehyde (mol %) generated from precursor,"[2]; pH 9, Control without addition of buffer solution",0.3 mol %
same,phenylacetaldehyde (mol %) generated from precursor,"[2]; pH 9 buffer, 5 min, 37° C.",4.9 mol %
same,phenylacetaldehyde (mol %) generated from precursor,"[2]; pH 9 buffer, 15 min, 37° C.",7.1 mol %
same,phenylacetaldehyde (mol %) generated from precursor,"[2]; pH 9 buffer, 30 min, 37° C.",14.3 mol %
